Experimental data from paper PMC7714403 (JCI Insight, 2020).
Read-outs that look alike come from different tables or passages of the source.

Key:
Assay in all cases: KiNativ, MOLM13 live cells
Assay type in all cases: cell-based
CaMK2d = CaMK2d (Homo sapiens, UniProt Q13557); details: MOLM-13; 100 nM, 2 hours; Lys1; read-out: Inhibition vs DMSO
Experimental: (§1) Samples were analyzed by KiNativ in situ kinase profiling by ActivX Biosciences.

LYN = LYN (Homo sapiens, UniProt P07948); details: MOLM-13; 100 nM, 2 hours; Activation Loop; read-out: Inhibition vs DMSO
Experimental: as §1

CaMK2g = CaMK2g (Homo sapiens, UniProt Q13555); details: MOLM-13; 100 nM, 2 hours; Lys1; read-out: Inhibition vs DMSO
Experimental: as §1

IKKa = IKKa (Homo sapiens, UniProt O15111); details: MOLM-13; 100 nM, 2 hours; Lys2; read-out: Inhibition vs DMSO
Experimental: as §1

PLK1 = PLK1 (Homo sapiens, UniProt P53350); details: MOLM-13, 2 h, 100 nM
Experimental: as §1

FES = FES (Homo sapiens, UniProt P07332); details: MOLM-13; 100 nM, 2 hours; Lys1; read-out: Inhibition vs DMSO
Experimental: as §1

SMG1 = SMG1 (Homo sapiens, UniProt Q96Q15); details: 100 nM, 2 hours, ATP
Experimental: as §1

Erk1 = Erk1 (Homo sapiens, UniProt P27361); details: MOLM-13; 100 nM, 2 hours; Lys2; read-out: Inhibition vs DMSO
Experimental: as §1

CDC2 = CDC2 (Homo sapiens, UniProt P06493); details: MOLM-13, 2 h, 100 nM
Experimental: as §1

CDK6 = CDK6 (Homo sapiens, UniProt Q00534); details: MOLM-13; 100 nM, 2 hours; Lys2; read-out: Inhibition vs DMSO
Experimental: as §1

ULK3 = ULK3 (Homo sapiens, UniProt Q6PHR2); details: 100 nM, 2 hours; Lys1
Experimental: as §1

MLK4 = MLK4 (Homo sapiens, UniProt Q5TCX8); details: MOLM-13; 100 nM, 2 hours; Lys2; read-out: Inhibition vs DMSO
Experimental: as §1

PCTAIRE1 = PCTAIRE1 (Homo sapiens, UniProt Q00536); details: MOLM-13; 100 nM, 2 hours; Lys1; read-out: Inhibition vs DMSO
Experimental: as §1

CSK = CSK (Homo sapiens, UniProt P41240); details: 100 nM, 2 hours; Activation Loop
Experimental: as §1

DGKA = DGKA (Homo sapiens, UniProt P23743); details: MOLM-13; 100 nM, 2 hours; ATP; read-out: Inhibition vs DMSO
Experimental: as §1

BTK = BTK (Homo sapiens, UniProt Q06187); details: 100 nM, 2 hours; Activation Loop
Experimental: as §1

RIPK3 = RIPK3 (Homo sapiens, UniProt Q9Y572); details: MOLM-13; 100 nM, 2 hours; Lys2; read-out: Inhibition vs DMSO
Experimental: as §1

eEF2K = eEF2K (Homo sapiens, UniProt O00418); details: MOLM-13; 100 nM, 2 hours; ATP; read-out: Inhibition vs DMSO
Experimental: as §1

MAP2K6 = target: T1, MAP2K6 (Homo sapiens, UniProt P52564); details: MOLM-13, 2 h, 100 nM
T1 sequence (P52564 1-334): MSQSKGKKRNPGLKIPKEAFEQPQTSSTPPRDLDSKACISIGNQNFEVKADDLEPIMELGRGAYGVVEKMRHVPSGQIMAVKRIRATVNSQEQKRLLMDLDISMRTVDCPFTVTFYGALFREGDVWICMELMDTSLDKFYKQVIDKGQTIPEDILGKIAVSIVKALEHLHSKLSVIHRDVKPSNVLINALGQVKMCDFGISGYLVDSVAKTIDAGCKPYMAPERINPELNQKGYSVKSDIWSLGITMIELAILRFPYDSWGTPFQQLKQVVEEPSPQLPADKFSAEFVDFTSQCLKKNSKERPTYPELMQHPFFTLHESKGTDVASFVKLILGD
Experimental: as §1

TBK1 = TBK1 (Homo sapiens, UniProt Q9UHD2); details: MOLM-13; 100 nM, 2 hours; Lys1; read-out: Inhibition vs DMSO
Experimental: as §1

TAO2 = TAO2 (Homo sapiens, UniProt Q9UL54); details: MOLM-13; 100 nM, 2 hours; Lys2; read-out: Inhibition vs DMSO
Experimental: as §1

IKKe = IKKe (Homo sapiens, UniProt Q14164); details: MOLM-13; 100 nM, 2 hours; Lys1; read-out: Inhibition vs DMSO
Experimental: as §1

PIP4K2C = target: T2, PIP4K2C (Homo sapiens, UniProt Q8TBX8); details: MOLM-13, 2 h, 100 nM, ATP, read-out: Inhibition vs DMSO
T2 sequence (Q8TBX8 1-421): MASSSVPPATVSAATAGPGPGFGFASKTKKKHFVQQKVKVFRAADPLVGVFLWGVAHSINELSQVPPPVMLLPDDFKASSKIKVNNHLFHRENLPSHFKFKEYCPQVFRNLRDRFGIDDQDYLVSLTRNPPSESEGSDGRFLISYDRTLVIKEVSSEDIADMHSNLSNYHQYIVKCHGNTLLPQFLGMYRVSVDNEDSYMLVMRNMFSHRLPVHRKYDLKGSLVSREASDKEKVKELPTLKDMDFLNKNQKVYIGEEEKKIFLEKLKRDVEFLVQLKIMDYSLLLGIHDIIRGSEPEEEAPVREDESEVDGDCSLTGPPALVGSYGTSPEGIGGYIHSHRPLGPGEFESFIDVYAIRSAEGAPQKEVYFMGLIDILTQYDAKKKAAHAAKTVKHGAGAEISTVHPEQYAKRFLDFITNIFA
Experimental: as §1

PFTAIRE2 = PFTAIRE2 (Homo sapiens, UniProt Q96Q40); details: MOLM-13; 100 nM, 2 hours; Lys2; read-out: Inhibition vs DMSO
Experimental: as §1

MAP4K5 = MAP4K5 (Homo sapiens, UniProt Q9Y4K4); details: MOLM-13, 2 h, 100 nM
Experimental: as §1

RSKL1 = RSKL1 (Homo sapiens, UniProt Q96S38); details: MOLM-13; 100 nM, 2 hours; ATP; read-out: Inhibition vs DMSO
Experimental: as §1

MAST3 = MAST3 (Homo sapiens, UniProt O60307); details: MOLM-13; 100 nM, 2 hours; Lys2; read-out: Inhibition vs DMSO
Experimental: as §1

SGK3 = SGK3 (Homo sapiens, UniProt Q96BR1); details: MOLM-13; 100 nM, 2 hours; Lys1; read-out: Inhibition vs DMSO
Experimental: as §1

[1] = Lys1, read-out: Inhibition vs DMSO
[2] = Lys2, read-out: Inhibition vs DMSO

Chain of CDC2 (P06493 whole entry): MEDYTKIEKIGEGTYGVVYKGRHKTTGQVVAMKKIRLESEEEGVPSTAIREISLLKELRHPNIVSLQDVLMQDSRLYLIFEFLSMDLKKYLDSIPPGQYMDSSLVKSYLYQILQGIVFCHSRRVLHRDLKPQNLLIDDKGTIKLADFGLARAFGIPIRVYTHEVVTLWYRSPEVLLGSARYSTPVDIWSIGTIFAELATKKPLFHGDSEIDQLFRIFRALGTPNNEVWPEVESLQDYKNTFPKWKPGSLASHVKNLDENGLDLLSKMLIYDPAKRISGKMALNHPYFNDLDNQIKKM
Chain of MAP4K5 (Q9Y4K4 whole entry): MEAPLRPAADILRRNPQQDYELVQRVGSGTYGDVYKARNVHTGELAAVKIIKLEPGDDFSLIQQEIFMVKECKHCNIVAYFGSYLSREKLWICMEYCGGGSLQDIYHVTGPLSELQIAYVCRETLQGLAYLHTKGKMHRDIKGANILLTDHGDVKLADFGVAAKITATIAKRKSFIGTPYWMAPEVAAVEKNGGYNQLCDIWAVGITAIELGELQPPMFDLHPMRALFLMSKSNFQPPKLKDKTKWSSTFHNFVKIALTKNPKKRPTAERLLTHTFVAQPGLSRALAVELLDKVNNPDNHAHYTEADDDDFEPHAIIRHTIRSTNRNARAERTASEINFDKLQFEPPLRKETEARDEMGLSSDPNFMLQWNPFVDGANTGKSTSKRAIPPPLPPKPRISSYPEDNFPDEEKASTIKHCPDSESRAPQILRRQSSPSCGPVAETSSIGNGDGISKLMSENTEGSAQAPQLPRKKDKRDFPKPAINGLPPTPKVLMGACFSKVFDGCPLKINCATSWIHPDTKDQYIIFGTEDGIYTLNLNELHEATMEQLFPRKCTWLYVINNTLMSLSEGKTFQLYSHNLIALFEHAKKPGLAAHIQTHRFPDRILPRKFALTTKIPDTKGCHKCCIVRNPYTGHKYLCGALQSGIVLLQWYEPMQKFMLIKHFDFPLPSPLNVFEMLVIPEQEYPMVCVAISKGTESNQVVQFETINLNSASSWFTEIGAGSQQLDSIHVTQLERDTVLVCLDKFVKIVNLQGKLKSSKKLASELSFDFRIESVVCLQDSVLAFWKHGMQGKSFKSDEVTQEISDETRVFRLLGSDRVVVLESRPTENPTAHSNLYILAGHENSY
Chain of PLK1 (P53350 whole entry): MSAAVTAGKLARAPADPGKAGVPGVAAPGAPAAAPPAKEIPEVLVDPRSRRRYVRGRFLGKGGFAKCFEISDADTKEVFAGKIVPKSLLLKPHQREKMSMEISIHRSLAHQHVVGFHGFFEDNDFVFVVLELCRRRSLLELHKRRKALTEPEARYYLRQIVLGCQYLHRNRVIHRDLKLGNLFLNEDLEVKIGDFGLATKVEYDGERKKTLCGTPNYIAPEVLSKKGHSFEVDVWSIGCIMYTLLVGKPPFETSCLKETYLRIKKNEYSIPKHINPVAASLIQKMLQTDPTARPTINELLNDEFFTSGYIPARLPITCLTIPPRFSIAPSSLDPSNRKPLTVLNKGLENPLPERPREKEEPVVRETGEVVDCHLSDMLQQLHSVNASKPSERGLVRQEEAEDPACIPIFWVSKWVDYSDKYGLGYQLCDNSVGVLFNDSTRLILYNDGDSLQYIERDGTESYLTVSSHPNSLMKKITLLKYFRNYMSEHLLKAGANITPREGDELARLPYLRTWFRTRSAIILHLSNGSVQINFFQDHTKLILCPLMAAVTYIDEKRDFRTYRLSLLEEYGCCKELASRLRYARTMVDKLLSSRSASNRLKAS
Chain of IKKa (O15111 whole entry): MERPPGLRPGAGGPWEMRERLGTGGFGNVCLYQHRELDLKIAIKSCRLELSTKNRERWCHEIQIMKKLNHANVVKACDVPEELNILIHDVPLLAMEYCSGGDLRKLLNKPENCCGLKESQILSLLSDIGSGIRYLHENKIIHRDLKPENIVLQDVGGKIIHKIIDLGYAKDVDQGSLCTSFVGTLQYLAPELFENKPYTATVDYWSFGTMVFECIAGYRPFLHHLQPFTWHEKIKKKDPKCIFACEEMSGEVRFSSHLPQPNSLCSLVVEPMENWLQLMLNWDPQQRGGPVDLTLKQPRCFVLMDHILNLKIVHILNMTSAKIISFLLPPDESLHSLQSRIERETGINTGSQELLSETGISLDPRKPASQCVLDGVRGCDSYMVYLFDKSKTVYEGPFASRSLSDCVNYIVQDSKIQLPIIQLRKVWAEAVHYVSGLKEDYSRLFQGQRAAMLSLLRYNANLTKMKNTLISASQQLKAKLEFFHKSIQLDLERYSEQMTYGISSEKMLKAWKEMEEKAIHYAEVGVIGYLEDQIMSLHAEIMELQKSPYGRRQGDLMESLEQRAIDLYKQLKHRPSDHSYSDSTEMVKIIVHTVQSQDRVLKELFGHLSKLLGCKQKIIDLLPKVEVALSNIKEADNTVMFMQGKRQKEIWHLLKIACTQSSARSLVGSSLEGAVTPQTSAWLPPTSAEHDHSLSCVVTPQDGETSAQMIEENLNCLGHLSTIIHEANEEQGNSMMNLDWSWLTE
Chain of MLK4 (Q5TCX8 whole entry): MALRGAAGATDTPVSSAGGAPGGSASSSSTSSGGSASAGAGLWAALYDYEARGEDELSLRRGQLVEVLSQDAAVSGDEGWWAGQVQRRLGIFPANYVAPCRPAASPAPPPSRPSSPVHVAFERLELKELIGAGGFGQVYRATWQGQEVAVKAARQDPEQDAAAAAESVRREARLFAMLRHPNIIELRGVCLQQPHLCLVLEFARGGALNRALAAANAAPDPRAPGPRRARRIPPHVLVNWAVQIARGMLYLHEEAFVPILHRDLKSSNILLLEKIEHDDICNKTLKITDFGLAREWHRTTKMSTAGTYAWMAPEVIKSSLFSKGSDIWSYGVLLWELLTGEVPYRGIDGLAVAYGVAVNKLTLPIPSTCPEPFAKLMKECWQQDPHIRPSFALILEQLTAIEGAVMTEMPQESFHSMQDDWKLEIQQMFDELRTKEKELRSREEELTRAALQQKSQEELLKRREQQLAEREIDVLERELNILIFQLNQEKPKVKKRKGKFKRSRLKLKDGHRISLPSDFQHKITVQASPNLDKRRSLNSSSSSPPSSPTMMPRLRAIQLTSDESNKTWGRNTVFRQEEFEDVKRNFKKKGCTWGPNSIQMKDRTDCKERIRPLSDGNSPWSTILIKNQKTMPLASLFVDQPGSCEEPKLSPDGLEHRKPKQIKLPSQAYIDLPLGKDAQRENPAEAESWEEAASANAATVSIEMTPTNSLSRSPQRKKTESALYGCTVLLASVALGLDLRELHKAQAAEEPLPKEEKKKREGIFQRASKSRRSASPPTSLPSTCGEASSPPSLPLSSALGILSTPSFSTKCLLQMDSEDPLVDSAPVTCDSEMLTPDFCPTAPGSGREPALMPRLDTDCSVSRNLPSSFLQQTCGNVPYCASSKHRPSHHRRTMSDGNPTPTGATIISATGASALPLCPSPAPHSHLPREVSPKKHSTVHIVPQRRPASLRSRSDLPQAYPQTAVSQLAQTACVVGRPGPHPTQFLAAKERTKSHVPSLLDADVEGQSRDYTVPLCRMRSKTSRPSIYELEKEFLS
Chain of LYN (P07948 whole entry): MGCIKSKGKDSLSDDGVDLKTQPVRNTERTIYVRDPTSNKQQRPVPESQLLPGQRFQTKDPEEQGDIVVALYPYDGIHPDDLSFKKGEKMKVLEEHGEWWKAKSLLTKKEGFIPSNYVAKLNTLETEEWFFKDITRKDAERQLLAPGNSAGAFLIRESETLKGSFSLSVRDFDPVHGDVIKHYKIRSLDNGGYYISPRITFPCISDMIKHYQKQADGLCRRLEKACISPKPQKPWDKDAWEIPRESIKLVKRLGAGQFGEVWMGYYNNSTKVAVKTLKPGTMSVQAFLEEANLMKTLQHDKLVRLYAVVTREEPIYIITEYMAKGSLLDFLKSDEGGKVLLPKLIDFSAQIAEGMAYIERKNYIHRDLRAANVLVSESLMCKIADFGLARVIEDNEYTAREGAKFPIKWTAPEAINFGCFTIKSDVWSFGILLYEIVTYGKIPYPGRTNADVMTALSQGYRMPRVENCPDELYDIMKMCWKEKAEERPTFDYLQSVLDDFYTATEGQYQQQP
Chain of CaMK2g (Q13555 whole entry): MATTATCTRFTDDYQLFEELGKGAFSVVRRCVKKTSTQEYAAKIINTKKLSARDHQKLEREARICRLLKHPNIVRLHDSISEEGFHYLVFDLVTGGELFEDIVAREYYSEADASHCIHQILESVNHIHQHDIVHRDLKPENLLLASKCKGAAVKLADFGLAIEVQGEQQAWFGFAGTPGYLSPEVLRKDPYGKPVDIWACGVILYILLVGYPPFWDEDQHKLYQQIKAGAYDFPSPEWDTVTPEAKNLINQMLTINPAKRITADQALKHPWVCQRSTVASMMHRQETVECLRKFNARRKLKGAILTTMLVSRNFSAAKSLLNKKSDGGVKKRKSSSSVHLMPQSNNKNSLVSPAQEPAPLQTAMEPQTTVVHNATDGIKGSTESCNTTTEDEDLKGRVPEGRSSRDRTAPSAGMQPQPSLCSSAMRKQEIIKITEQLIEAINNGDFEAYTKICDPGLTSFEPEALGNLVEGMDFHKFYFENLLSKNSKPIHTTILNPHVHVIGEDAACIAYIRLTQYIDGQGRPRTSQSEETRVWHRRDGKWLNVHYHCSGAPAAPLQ
Chain of Erk1 (P27361 whole entry): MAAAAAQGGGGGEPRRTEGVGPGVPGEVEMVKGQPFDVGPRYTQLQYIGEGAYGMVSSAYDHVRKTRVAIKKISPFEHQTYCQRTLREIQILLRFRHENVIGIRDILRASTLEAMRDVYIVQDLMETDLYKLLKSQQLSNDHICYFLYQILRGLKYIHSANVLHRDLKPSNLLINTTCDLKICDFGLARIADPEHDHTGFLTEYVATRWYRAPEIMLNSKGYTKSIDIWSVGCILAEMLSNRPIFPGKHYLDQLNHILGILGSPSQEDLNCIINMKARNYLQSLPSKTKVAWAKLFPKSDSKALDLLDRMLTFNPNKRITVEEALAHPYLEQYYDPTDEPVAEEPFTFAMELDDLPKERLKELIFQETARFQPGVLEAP

SMILES: CN1CCN(Cc2ccc(Nc3ncc(Cl)c(Nc4ccccc4S(=O)(=O)N(C)C)n3)cc2)CC1 [TP-0903]
- inhibition at 0.1 µM (CaMK2d): 7.5%
- inhibition at 0.1 µM (LYN): 58.8%
- inhibition at 0.1 µM (CaMK2g): 25.8%
- inhibition at 0.1 µM (IKKa): 2.9%
- inhibition at 0.1 µM (PLK1; [1]): 4.9%
- inhibition at 0.1 µM (PLK1; [2]): 0.247%
- inhibition at 0.1 µM (FES): 1%
- Inhibition vs DMSO (SMG1; DTVTIHSVGGTITILPTKTKPK): -27.8%
- Inhibition vs DMSO (SMG1; SYPYLFKGLEDLHLDER): -27.3%
- inhibition at 0.1 µM (Erk1): -2.8%
- inhibition at 0.1 µM (CDC2; [1]): 2.5%
- inhibition at 0.1 µM (CDC2; [2]): 0.8%
- inhibition at 0.1 µM (CDC2; Protein Kinase Domain, read-out: Inhibition vs DMSO): -40.6%
- inhibition at 0.1 µM (CDK6): 80.8%
- Inhibition vs DMSO (ULK3): 28.7%
- inhibition at 0.1 µM (MLK4): -13.5%
- inhibition at 0.1 µM (PCTAIRE1): 69.6%
- Inhibition vs DMSO (CSK): -5.0%
- inhibition at 0.1 µM (DGKA): -9.4%
- Inhibition vs DMSO (BTK): 57.0%
- inhibition at 0.1 µM (RIPK3): 6.4%
- inhibition at 0.1 µM (eEF2K): -29.5%
- inhibition at 0.1 µM (MAP2K6; [1]): -2.4%
- inhibition at 0.1 µM (MAP2K6; [2]): -11.9%
- inhibition at 0.1 µM (TBK1): 82.3%
- inhibition at 0.1 µM (TAO2): 10.8%
- inhibition at 0.1 µM (IKKe): 19.3%
- inhibition at 0.1 µM (PIP4K2C; TLVIKEVSSEDIADMHSNLSNYHQYIVK): -26%
- inhibition at 0.1 µM (PIP4K2C; VKELPTLKDMDFLNK): -26.5%
- inhibition at 0.1 µM (PFTAIRE2): 16.4%
- inhibition at 0.1 µM (MAP4K5; [1]): 54.8%
- inhibition at 0.1 µM (MAP4K5; [2]): 42.9%
- inhibition at 0.1 µM (RSKL1): -8.3%
- inhibition at 0.1 µM (MAST3): -22.3%
- inhibition at 0.1 µM (SGK3): -9.6%
